From patent publication US10363239B2, “Method for inhibiting growth of cancer cells” (Pain Therapeutics, Inc., priority 2013, dated 2019)
Read-outs that look alike come from different tables or passages of the source.

What was measured:
[1] = biological target: FLNA pentapeptide of SEQ ID NO: 1 (Bn-VAKGL) (Homo sapiens, UniProt P21333); test: FITC-NLX-based FLNA screening assay (inhibition of FITC-naloxone binding to Bn-VAKGL on streptavidin plates); conditions: for inhibition at 0.01 µM / inhibition at 0.1 µM / inhibition at 1 µM: 10 nM FITC-NLX
mu opiate receptor (MOR) = test: MOR agonist activity using [35S]GTPγS binding assay in striatal membranes; format: biochemical; conditions: for MOR agonist activity ([35S]GTPγS binding), FLNA-Binding Compound as Agonist 1 μM + BFNA: 1 μM compound + 1 μM β-funaltrexamine
Outline: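 Striatal membranes (200 μg) were preincubated 5 min at 30 °C in HEPES pH 7.5 with 100 mM NaCl, 1 mM MgCl2 and 0.5 nM [35S]GTPγS, then 5 min more with 0.1–10 μM compound. Gαo was immunoprecipitated and bound radioactivity counted by scintillation.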

[2] = read-out: Percent Binding Inhibition, FLNA-binding compound 0.01 μM
[3] = read-out: Percent Binding Inhibition, FLNA-binding compound 0.1 μM
[4] = read-out: Percent Binding Inhibition, FLNA-binding compound 1 μM
[5] = 0.1 μM compound relative to DAMGO
[6] = 1 μM compound + BFNA relative to DAMGO + BFNA
[7] = 1 μM compound relative to DAMGO
[8] = FLNA-binding compound 0.01 μM, read-out: Percent Binding Inhibition
[9] = FLNA-binding compound 0.1 μM, read-out: Percent Binding Inhibition
[10] = FLNA-binding compound 1 μM, read-out: Percent Binding Inhibition
[11] = Series C-1, 0.1 μM compound, relative to DAMGO
[12] = Series C-1, 0.1 μM compound, [35S]GTPγS binding to Gαo, striatal membranes
[13] = Series C-1, 1 μM compound + 1 μM β-FNA
[14] = Series C-1, 1 μM compound + β-FNA, relative to DAMGO + BFNA
[15] = Series C-1, 1 μM compound, relative to DAMGO
[16] = Series C-1, 1 μM compound, [35S]GTPγS binding to Gαo, striatal membranes
[17] = Series B, 0.1 μM compound, relative to DAMGO
[18] = Series B, 0.1 μM compound, [35S]GTPγS binding to Gαo, striatal membranes
[19] = Series B, 1 μM compound + 1 μM β-FNA
[20] = Series B, 1 μM compound + β-FNA, relative to DAMGO + BFNA
[21] = Series B, 1 μM compound, relative to DAMGO
[22] = Series B, 1 μM compound, [35S]GTPγS binding to Gαo, striatal membranes
[23] = Series C-2, 0.1 μM compound, relative to DAMGO
[24] = Series C-2, 0.1 μM compound, [35S]GTPγS binding to Gαo, striatal membranes
[25] = Series C-2, 1 μM compound + 1 μM β-FNA
[26] = Series C-2, 1 μM compound + β-FNA, relative to DAMGO + BFNA
[27] = Series C-2, 1 μM compound, relative to DAMGO
[28] = Series C-2, 1 μM compound, [35S]GTPγS binding to Gαo, striatal membranes

Structure (SMILES)	inhibition at 0.01 µM [1, 2] [%]	inhibition at 0.1 µM [1, 3] [%]	inhibition at 1 µM [1, 4] [%]	MOR agonist activity ([35S]GTPγS binding), FLNA-Binding Compound as Agonist 0.1 μM (mu opiate receptor (MOR); 0.1 μM compound) [%]	% DAMGO (0.1 μM) (mu opiate receptor (MOR); [5]) [%]	MOR agonist activity ([35S]GTPγS binding), FLNA-Binding Compound as Agonist 1 μM (mu opiate receptor (MOR); 1 μM compound) [%]	MOR agonist activity ([35S]GTPγS binding), FLNA-Binding Compound as Agonist 1 μM + BFNA (mu opiate receptor (MOR)) [%]	% DAMGO + BFNA (mu opiate receptor (MOR); [6]) [%]	% DAMGO (1 μM) (mu opiate receptor (MOR); [7]) [%]	inhibition at 0.01 µM [1, 8] [%]	inhibition at 0.1 µM [1, 9] [%]	inhibition at 1 µM [1, 10] [%]	also measured
COc1ccc(N2CCN(CC(O)COC3CC(C)CCC3C(C)C)CC2)c(OC)c1 (centres unmarked) [Compound A0012]	39.7	49.6	54.4	149.3	99.9	185.7	122.4	461.9	80.7	–	–	–	–
CC1CN(CC(O)COc2cc(F)cc(F)c2)CC(C)O1 (centres unmarked) [Compound A0046]	–	–	–	257.5	131.2	354.1	140.0	189.4	128.3	34.3	38.4	40.9	–
CC1CCC(C(C)C)C(OCC(O)CN2CCC(=O)C(C)C2)C1 (centres unmarked) [Compound A0056]	34.4	40.9	41.3	115.6	74.1	129.6	17.4	43.6	56.2	–	–	–	–
COc1ccc(S(=O)(=O)N2CCOC23CCN(S(=O)(=O)c2ccc(C(C)=O)cc2)CC3)cc1 [Compound C0047]	30.8	35.2	41.4	–	–	–	–	–	–	–	–	–	% DAMGO (0.1 μM) (mu opiate receptor (MOR); [11]): 98.1%; Concentration of FLNA-Binding Compound as Agonist 0.1 μM (mu opiate receptor (MOR); [12]): 142.2%; Concentration of FLNA-Binding Compound as Agonist 1 μM + BFNA (mu opiate receptor (MOR); [13]): 80.1%; % DAMGO + BFNA (mu opiate receptor (MOR); [14]): 182.0%; % DAMGO (1 μM) (mu opiate receptor (MOR); [15]): 88.5%; Concentration of FLNA-Binding Compound as Agonist 1 μM (mu opiate receptor (MOR); [16]): 206.1%
COc1c2c(cc3c1C(CC(=O)c1ccc(N4CCOCC4)cc1)[N+](C)(C)CC3)OCO2 (centres unmarked) [Compound B0004]	38.9	50	54.8	–	–	–	–	–	–	–	–	–	% DAMGO (0.1 μM) (mu opiate receptor (MOR); [17]): 102.8%; MOR agonist activity, percent [35S]GTPγS binding at the stated compound concentration (mu opiate receptor (MOR); [18]): 170.3%; MOR agonist activity, percent [35S]GTPγS binding at the stated compound concentration (mu opiate receptor (MOR); [19]): 72.0%; % DAMGO + BFNA (mu opiate receptor (MOR); [20]): 110.8%; % DAMGO (1 μM) (mu opiate receptor (MOR); [21]): 85.8%; MOR agonist activity, percent [35S]GTPγS binding at the stated compound concentration (mu opiate receptor (MOR); [22]): 231.7%
OC(COc1cccc(F)c1)CN1CCc2ccccc2C1 (centres unmarked) [Compound A0055]	–	–	–	89.8	53.2	195.2	33.5	102.4	78.4	28.1	32.4	41.8	–
CC1CCC(C(C)C)C(OCC(O)CN2CCCCC2=O)C1 (centres unmarked) [Compound A0036]	–	–	–	144.1	73.4	167.5	63.2	85.5	60.7	45.6	50.1	54.4	–
CN1CCC2(CC1)NCC(=O)N2Cc1ccccc1 [Compound C0105M]	55.7	62	68.8	–	–	–	–	–	–	–	–	–	% DAMGO (0.1 μM) (mu opiate receptor (MOR); [23]): 104.7%; MOR agonist activity, percent [35S]GTPγS binding at the stated compound concentration (mu opiate receptor (MOR); [24]): 198.1%; MOR agonist activity, percent [35S]GTPγS binding at the stated compound concentration (mu opiate receptor (MOR); [25]): 73.1%; % DAMGO + BFNA (mu opiate receptor (MOR); [26]): 150.7%; % DAMGO (1 μM) (mu opiate receptor (MOR); [27]): 88.8%; MOR agonist activity, percent [35S]GTPγS binding at the stated compound concentration (mu opiate receptor (MOR); [28]): 220.3%
CC1CN(CC(O)COc2ccccc2)CC(C)O1 (centres unmarked) [Compound A0025]	39	49.8	53.2	58.6	33.2	138.7	52.2	198.5	54.5	–	–	–	–
COc1c2c(cc3c1C(CC(=O)CCc1ccc(Cl)cc1)[N+](C)(C)CC3)OCO2 (centres unmarked) [Compound B0017]	28.3	36.6	44.6	–	–	–	–	–	–	–	–	–	% DAMGO (0.1 μM) (mu opiate receptor (MOR); [17]): 58.9%; MOR agonist activity, percent [35S]GTPγS binding at the stated compound concentration (mu opiate receptor (MOR); [18]): 99.6%; MOR agonist activity, percent [35S]GTPγS binding at the stated compound concentration (mu opiate receptor (MOR); [19]): 49.6%; % DAMGO + BFNA (mu opiate receptor (MOR); [20]): 75.2%; % DAMGO (1 μM) (mu opiate receptor (MOR); [21]): 45.6%; MOR agonist activity, percent [35S]GTPγS binding at the stated compound concentration (mu opiate receptor (MOR); [22]): 122.0%
CC1CCC(C(C)C)C(OCC(O)CN2CCCCCC2)C1 (centres unmarked) [Compound A0013]	–	–	–	102.1	57.8	164.8	86.1	131.1	63.6	30.2	40.2	47.7	–
COc1cc(CC(=O)CC2c3c(cc4c(c3OC)OCO4)CC[N+]2(C)C)cc(OC)c1OC (centres unmarked) [Compound B0008]	35.5	40.3	52.8	–	–	–	–	–	–	–	–	–	% DAMGO (0.1 μM) (mu opiate receptor (MOR); [17]): 84.0%; MOR agonist activity, percent [35S]GTPγS binding at the stated compound concentration (mu opiate receptor (MOR); [18]): 148.3%; MOR agonist activity, percent [35S]GTPγS binding at the stated compound concentration (mu opiate receptor (MOR); [19]): 46.0%; % DAMGO + BFNA (mu opiate receptor (MOR); [20]): 70.0%; % DAMGO (1 μM) (mu opiate receptor (MOR); [21]): 101.9%; MOR agonist activity, percent [35S]GTPγS binding at the stated compound concentration (mu opiate receptor (MOR); [22]): 264.1%
OC(COc1ccc(Br)c(F)c1)CN1CCSCC1 (centres unmarked) [Compound A0059]	27.4	36.6	38.7	99.2	63.5	129.9	85.7	214.8	56.4	–	–	–	–
COc1ccc(S(=O)(=O)N2CCOC23CCN(C(=O)OC(C)(C)C)CC3)cc1 [Compound C0043]	–	–	–	–	–	–	–	–	–	43.9	51.3	58	% DAMGO (0.1 μM) (mu opiate receptor (MOR); [23]): 103.8%; MOR agonist activity, percent [35S]GTPγS binding at the stated compound concentration (mu opiate receptor (MOR); [24]): 175.4%; MOR agonist activity, percent [35S]GTPγS binding at the stated compound concentration (mu opiate receptor (MOR); [25]): 83.3%; % DAMGO + BFNA (mu opiate receptor (MOR); [26]): 501.8%; % DAMGO (1 μM) (mu opiate receptor (MOR); [27]): 110.9%; MOR agonist activity, percent [35S]GTPγS binding at the stated compound concentration (mu opiate receptor (MOR); [28]): 242.6%
CC(=O)c1ccc(S(=O)(=O)N2CCC3(CC2)OCC(CCCCN(C)C)N3S(=O)(=O)c2ccc(C(C)=O)cc2)cc1 (centres unmarked) [Compound C0080]	–	–	–	–	–	–	–	–	–	46.8	53.3	54.6	% DAMGO (0.1 μM) (mu opiate receptor (MOR); [11]): 112.1%; Concentration of FLNA-Binding Compound as Agonist 0.1 μM (mu opiate receptor (MOR); [12]): 187.9%; Concentration of FLNA-Binding Compound as Agonist 1 μM + BFNA (mu opiate receptor (MOR); [13]): 167.1%; % DAMGO + BFNA (mu opiate receptor (MOR); [14]): 351.8%; % DAMGO (1 μM) (mu opiate receptor (MOR); [15]): 92.4%; Concentration of FLNA-Binding Compound as Agonist 1 μM (mu opiate receptor (MOR); [16]): 205.4%
COc1ccccc1CCC(=O)CC1c2c(cc3c(c2OC)OCO3)CC[N+]1(C)C (centres unmarked) [Compound B0045]	63.2	68.2	73.9	–	–	–	–	–	–	–	–	–	% DAMGO (0.1 μM) (mu opiate receptor (MOR); [17]): 82.6%; MOR agonist activity, percent [35S]GTPγS binding at the stated compound concentration (mu opiate receptor (MOR); [18]): 129.3%; MOR agonist activity, percent [35S]GTPγS binding at the stated compound concentration (mu opiate receptor (MOR); [19]): 83.8%; % DAMGO + BFNA (mu opiate receptor (MOR); [20]): 257.1%; % DAMGO (1 μM) (mu opiate receptor (MOR); [21]): 83.4%; MOR agonist activity, percent [35S]GTPγS binding at the stated compound concentration (mu opiate receptor (MOR); [22]): 193.1%
CC1CCC(C(C)C)C(OCC(O)CN2CCN(CCc3ccccc3)CC2)C1 (centres unmarked) [Compound A0020]	–	–	–	168.6	100.9	217.4	67.4	194.2	88.7	37.8	38.8	45.8	–
O=S(=O)(c1ccc(OC(F)(F)F)cc1)N1CCOC12CCN(CC1CC1)CC2 [Compound 4]	–	–	–	–	–	–	–	–	–	–	–	–	Binding to FLNA (conclusion in words) ([1]; preliminary study): bound well to FLNA; MOR agonist activity, FLNA-Binding Compound as Agonist 0.1 μM (preliminary study) (mu opiate receptor (MOR); 0.1 μM, average of two runs): 133.9%; MOR agonist activity, FLNA-Binding Compound as Agonist 1 μM + βNFA (preliminary study) (mu opiate receptor (MOR); 1 μM + βNFA, average of two runs): 49.5%; MOR agonist activity, FLNA-Binding Compound as Agonist 1 μM (preliminary study) (mu opiate receptor (MOR); 1 μM, average of two runs): 165.2%; MOR agonist activity (conclusion in words) (mu opiate receptor (MOR); preliminary study): not as potent a MOR agonist
